Measured values reported in patent US9724347B2, “1-pyrazolyl-3-(4-((2-anilinopyrimidin-4-yl)oxy)napththalen-1-yl) ureas as P38 MAP knase inhibitors” (Respivert Ltd., priority 2011, dated 2017).

What was measured:
GSK3α = GSK3α (Homo sapiens (Human), UniProt P49840); assay: Kinase binding, active site-directed competition binding (DiscoverX)
Balb/c mice = assay: LPS-induced neutrophil accumulation in mice; assay type: in vivo
Description: […] At T=0, mice were placed into an exposure chamber and exposed to LPS (7.0 mL, 0.5 mg/mL solution in PBS) for 30 min). After a further 8 hr the animals were anesthetized, their tracheas cannulated and BALF extracted by infusing and then withdrawing from their lungs 1.0 mL of PBS via the tracheal catheter. Total and differential white cell counts in the BALF samples were measured using a Neubaur haemocytometer. Cytospin smears of the BALF samples were prepared by centrifugation at 200 rpm for 5 min at RT and stained using a DiffQuik stain system (Dade Behring). Cells were counted using oil immersion microscopy. Data for neutrophil numbers in BAL are shown as mean±S.E.M. (standard error of the mean). The percentage inhibition of neutrophil accumulation was calculated for each treatment relative to vehicle treatment.

d-U937 cells = assay: Cell viability: MTT assay; assay type: cell-based, human; conditions: 1 μg/mL
In short: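 Differentiated U937 cells exposed to compound at 1 or 10 μg/mL final, either 4 h in 5% FCS RPMI1640 or 24 h in 10% FCS RPMI1640. After medium replacement, MTT added 1 h, formazan dissolved in DMSO, A550 read. % viability loss vs 0.5% DMSO vehicle; apparent viability gain shown as negative %.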

PBMC cells = assay: Cell mitosis assay; assay type: cell-based, human
Description: Peripheral blood mononucleocytes (PBMCs) from healthy subjects were separated from whole blood (Quintiles, London, UK) using a density gradient (Histopaque®-1077, Sigma-Aldrich, Poole, UK). The PBMCs (3 million cells per sample) were subsequently treated with 2% PHA (Sigma-Aldrich, Poole, UK) for 48 hr, followed by a 20 hr exposure to varying concentrations of test compounds. At 2 hr before collection, PBMCs were treated with demecolcine (0.1 μg/mL; Invitrogen, Paisley, UK,) to arrest cells in metaphase. To observe mitotic cells, PBMCs were permeabilised and fixed by adding Intraprep (50 μL; Beckman Coulter, France), and stained with anti-phospho-histone 3 ([…]; #9701; Cell Signalling, Danvers, Mass.) and propidium iodide (1 mg/mL; Sigma-Aldrich, Poole, UK,) as previously described (Muehlbauer P. A. and Schuler M. J., Mutation Research, 2003, 537:117-130). Fluorescence was observed using an ATTUNE flow cytometer (Invitrogen, Paisley, UK), gating for lymphocytes.

A/J mice = assay: Cigarette smoke model; assay type: in vivo; conditions: for CXCL1 in BALF, % inhibition / Cell numbers in BALF, Macrophage / Cell numbers in BALF, Macrophage, % inhibition / Cell numbers in BALF, Neutrophil / Cell numbers in BALF, Neutrophil, % inhibition: tobacco smoke
Description: A/J mice (males, 5 weeks old) were exposed to cigarette smoke (4% cigarette smoke, diluted with air) for 30 min/day for 11 days using a Tobacco Smoke Inhalation Experiment System for small animals (Model SIS-CS; Sibata Scientific Technology, Tokyo, Japan). Test substances were administered intra-nasally (35 μL of solution in 50% DMSO/PBS) once daily for 3 days after the final cigarette smoke exposure. At 12 hr after the last dosing, each of the animals was anesthetized, the trachea cannulated and bronchoalveolar lavage fluid (BALF) was collected. The numbers of alveolar macrophages and neutrophils were determined by FACS analysis (EPICS® ALTRA II, Beckman Coulter, Inc., Fullerton, Calif., USA) using anti-mouse MOMA2 antibody (macrophage) or anti-mouse 7/4 antibody (neutrophil). BALF was centrifuged and the supernatant was collected. The level of keratinocyte chemoattractant (KC; CXCL1) in BALF was quantitated using a Quentikine® mouse KC ELISA kit (R&D systems, Inc., Minneapolis, Minn., USA).

[1] = test system: HRV IL-8 release (BEAS2B); assay: Rhinovirus-induced IL-8 release in BEAS2B cells; assay type: cell-based, human; conditions: at 0.04 μg/mL
Description: Human rhinovirus RV16 was obtained from the American Type Culture Collection (Manassas, Va.). Viral stocks were generated by infecting Hela cells with HRV until 80% of the cells were cytopathic.
BEAS2B cells were infected with HRV at an MOI of 5 and incubated for 2 hr at 33° C. with gentle shaking for to promote absorption. The cells were then washed with PBS, fresh media added and the cells were incubated for a further 72 hr. The supernatant was collected for assay of IL-8 concentrations using a Duoset ELISA development kit (R&D systems, Minneapolis, Minn.).
The level of cell surface ICAM-1 expression was determined by cell-based ELISA. At 72 hr after infection, cells were fixed with 4% formaldehyde in PBS. After quenching endogenous peroxidase by adding 0.1% sodium azide and 1% hydrogen peroxide, wells were washed with wash-buffer (0.05% Tween in PBS: PBS-Tween). […] The ICAM-1 signal was detected by adding substrate and reading at 450 nm with a reference wavelength of 655 nm using a spectrophotometer. The wells were then washed with PBS-Tween and total cell numbers in each well were determined by reading absorbance at 595 nm after Crystal Violet staining and elution by 1% SDS solution. The measured OD450-655 readings were corrected for cell number by dividing with the OD595 reading in each well. […]

HRV16 = HRV16 induced CPE in MRC5 cells; assay type: cell-based, human rhinovirus; conditions: at 0.04 μg/mL
Description: The supernatants were aspirated, and then fresh media added followed by incubation for 4 days. Where appropriate, cells were pre-incubated with compound or DMSO for 2 hr, and the compounds and DMSO added again after washout of the virus.
The percentage inhibition for each well was calculated. The IC50 value was calculated from the concentration-response curve generated by the serial dilutions of the test compounds.

p38MAPKγ (MAPK12) = p38MAPKγ (MAPK12) (Homo sapiens (Human), UniProt P53778); assay: p38 MAPKγ enzyme inhibition (FRET, Z-LYTE); assay type: biochemical
In short: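 Z-LYTE FRET kinase format on donor/acceptor-labeled synthetic peptide; protease development 1 hr cleaves only non-phosphorylated peptide. Phosphorylation derived from coumarin/fluorescein emission ratio, low ratio indicating high phosphorylation.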

[2] = molecular target: p38 MAPKα isoform (MAPK14) (Homo sapiens (Human), UniProt Q16539); assay: p38 MAPKα enzyme inhibition (FRET, Z-LYTE); assay type: biochemical
GSK 3α enzyme isoform = GSK 3α enzyme isoform (Homo sapiens (Human), UniProt P49840); assay: GSK 3α enzyme inhibition (FRET, Z-LYTE); assay type: biochemical; conditions: read-out: IC50 Values for Enzyme Inhibition GSK3α
In short: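 Human GSK3α (500 ng/mL stock) was preincubated 2 h at RT with compound (stocks 4, 0.4, 0.04 or 0.004 μg/mL), then given FRET peptide (8 μM stock) and ATP (40 μM stock) for 1 h. After 1 h protease development, the coumarin/fluorescein emission ratio gave phosphorylation level.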

[3] = test system: ICAM-1 expression in BEAS2B cells; assay: Poly I:C-induced ICAM-1 expression in BEAS2B cells; assay type: cell-based, human; conditions: Homo sapiens, BEAS-2B, read-out: PolyIC/ICAM1 IC50 (BEAS2B)
In short: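 BEAS2B human bronchial epithelial cells pre-incubated 2 h with compound, then transfected with 1 μg/mL poly I:C plus Oligofectamine. After 18 h, surface ICAM-1 measured by cell-based ELISA (OD450–655), normalised to crystal violet cell count (OD595). Inhibition calculated against vehicle control.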

Chain of p38 MAPKα isoform (MAPK14) (Q16539 whole entry, canonical isoform): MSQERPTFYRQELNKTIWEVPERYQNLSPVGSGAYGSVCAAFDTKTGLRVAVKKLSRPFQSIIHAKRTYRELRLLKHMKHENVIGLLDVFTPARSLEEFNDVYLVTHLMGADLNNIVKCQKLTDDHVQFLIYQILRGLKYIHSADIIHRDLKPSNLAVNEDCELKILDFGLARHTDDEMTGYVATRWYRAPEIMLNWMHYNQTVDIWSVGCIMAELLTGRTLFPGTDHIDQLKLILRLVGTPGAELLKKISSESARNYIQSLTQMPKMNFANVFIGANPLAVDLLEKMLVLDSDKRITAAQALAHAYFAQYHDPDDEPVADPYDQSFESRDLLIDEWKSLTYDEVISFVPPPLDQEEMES
Chain of p38MAPKγ (MAPK12) (P53778 whole entry): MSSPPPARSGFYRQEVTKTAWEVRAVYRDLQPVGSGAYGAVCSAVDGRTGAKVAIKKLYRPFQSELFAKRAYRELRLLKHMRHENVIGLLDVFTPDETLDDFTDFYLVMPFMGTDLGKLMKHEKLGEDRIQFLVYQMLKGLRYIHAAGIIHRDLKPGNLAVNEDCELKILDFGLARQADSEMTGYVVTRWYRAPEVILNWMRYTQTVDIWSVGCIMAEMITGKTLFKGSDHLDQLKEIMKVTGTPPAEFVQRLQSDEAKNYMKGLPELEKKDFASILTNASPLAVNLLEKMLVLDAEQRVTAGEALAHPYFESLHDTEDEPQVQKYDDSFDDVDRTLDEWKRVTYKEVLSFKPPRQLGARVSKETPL
Chain of GSK 3α enzyme isoform (P49840 whole entry, canonical isoform): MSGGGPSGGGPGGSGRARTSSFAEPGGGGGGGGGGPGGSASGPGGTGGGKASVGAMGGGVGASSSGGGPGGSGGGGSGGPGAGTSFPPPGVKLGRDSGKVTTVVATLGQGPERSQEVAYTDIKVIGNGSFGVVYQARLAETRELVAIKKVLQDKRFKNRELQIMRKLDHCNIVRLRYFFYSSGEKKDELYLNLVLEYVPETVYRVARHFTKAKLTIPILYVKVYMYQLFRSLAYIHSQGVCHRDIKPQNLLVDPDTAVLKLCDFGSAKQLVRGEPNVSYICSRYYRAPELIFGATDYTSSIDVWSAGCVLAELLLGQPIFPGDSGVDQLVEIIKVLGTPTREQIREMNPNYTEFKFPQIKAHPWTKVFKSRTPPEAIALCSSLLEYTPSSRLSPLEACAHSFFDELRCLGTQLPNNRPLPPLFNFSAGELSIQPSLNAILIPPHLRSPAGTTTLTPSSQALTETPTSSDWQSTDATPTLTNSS
Chain of GSK3α (P49840 whole entry): as the sequence (P49840 whole entry, canonical isoform) above

In the case of Cc1ccc(-n2nc(C(C)(C)C)cc2NC(=O)Nc2ccc(Oc3ccnc(Nc4ccccc4)n3)c3ccccc23)cc1 [Example 1, 1-(3-(tert-Butyl)-1-(p-tolyl)-1H-pyrazol-5-yl)-3-(4-(2-(phenylamino)pyrimidin-4-yloxy)naphthalen-1-yl)urea], the “inhibition of binding against GSK3α (in words)” value (GSK3α) is reported as “without significant effect”, the “Neutrophil numbers in BALF, % inhibition” value (Balb/c mice; 0.05 mg/mL intra tracheal, pre-dose time 2 hr) is reported as 18% and the “Neutrophil numbers in BALF, % inhibition” value (Balb/c mice; 0.2 mg/mL intra tracheal, pre-dose time 2 hr) is reported as 48%. For the same compound, the “Neutrophil numbers in BALF, % inhibition” value (Balb/c mice; 1.0 mg/mL intra tracheal, pre-dose time 2 hr) was 77%, the “Neutrophil numbers in BALF, % inhibition” value (Balb/c mice; 1.0 mg/mL intra tracheal, pre-dose time 8 hr) was 48% and the “Neutrophil numbers in BALF, % inhibition” value (Balb/c mice; 1.0 mg/mL intra tracheal, pre-dose time 12 hr) was 4%. The “effect on LPS-induced neutrophil accumulation (in words)” value (Balb/c mice; mice) was “dose dependent inhibition”, the duration of action (Balb/c mice; time course experiment, mice) was “long duration of action” and the “MTT Assay Cell viability at time point in d-U937 Cells” value (from here on “MTT Assay Cell viability”) (d-U937 cells; 4 h) was “−ve (−ve and +ve indicate the value is below and above respectively, the no significant effect threshold defined as 30% inhibition at 1 μg/mL at the time point indicated)”. The “MTT Assay Cell viability” value (d-U937 cells; 24 h) was “−ve (−ve and +ve indicate the value is below and above respectively, the no significant effect threshold defined as 30% inhibition at 1 μg/mL at the time point indicated)”, the “Mitosis Assay % inhibition in PBMC Cells” value (PBMC cells; 1 μg/mL) was 13.7% and the “Mitosis Assay % inhibition in PBMC Cells” value (PBMC cells; 5 μg/mL) was 31.3%. The “CXCL1 in BALF, % inhibition” value (A/J mice; 0.32 μg/mL intra-nasal) was 0%, the “Cell numbers in BALF, Macrophage” value (A/J mice; 0.32 μg/mL intra-nasal) was 13.3 ± 0.20 ×10^4/mL and the “Cell numbers in BALF, Macrophage, % inhibition” value (A/J mice; 0.32 μg/mL intra-nasal) was 11%. For the same compound, the “Cell numbers in BALF, Neutrophil” value (A/J mice; 0.32 μg/mL intra-nasal) was 12.4 ± 0.32 ×10^4/mL, the “Cell numbers in BALF, Neutrophil, % inhibition” value (A/J mice; 0.32 μg/mL intra-nasal) was 12% and the “CXCL1 in BALF, % inhibition” value (A/J mice; 1.6 μg/mL intra-nasal) was 26%. The “Cell numbers in BALF, Macrophage” value (A/J mice; 1.6 μg/mL intra-nasal) was 11.6 ± 0.42 ×10^4/mL, the “Cell numbers in BALF, Macrophage, % inhibition” value (A/J mice; 1.6 μg/mL intra-nasal) was 28% and the “Cell numbers in BALF, Neutrophil” value (A/J mice; 1.6 μg/mL intra-nasal) was 10.5 ± 0.06 ×10^4/mL. The “Cell numbers in BALF, Neutrophil, % inhibition” value (A/J mice; 1.6 μg/mL intra-nasal) was 29%, the “CXCL1 in BALF, % inhibition” value (A/J mice; 8.0 μg/mL intra-nasal) was 41% and the “Cell numbers in BALF, Macrophage” value (A/J mice; 8.0 μg/mL intra-nasal) was 10.1 ± 0.42 ×10^4/mL. For the same compound, the “Cell numbers in BALF, Macrophage, % inhibition” value (A/J mice; 8.0 μg/mL intra-nasal) was 43%, the “Cell numbers in BALF, Neutrophil” value (A/J mice; 8.0 μg/mL intra-nasal) was 9.1 ± 0.28 ×10^4/mL and the “Cell numbers in BALF, Neutrophil, % inhibition” value (A/J mice; 8.0 μg/mL intra-nasal) was 41%. For the same compound, the “CXCL1 in BALF, % inhibition” value (A/J mice; 40 μg/mL intra-nasal) was 76%, the “Cell numbers in BALF, Macrophage” value (A/J mice; 40 μg/mL intra-nasal) was 7.9 ± 0.20 ×10^4/mL and the “Cell numbers in BALF, Macrophage, % inhibition” value (A/J mice; 40 μg/mL intra-nasal) was 64%. For the same compound, the “Cell numbers in BALF, Neutrophil” value (A/J mice; 40 μg/mL intra-nasal) was 7.9 ± 0.34 ×10^4/mL, the “Cell numbers in BALF, Neutrophil, % inhibition” value (A/J mice; 40 μg/mL intra-nasal) was 52% and the “cigarette smoke induced CXCL1 (KC) production in BALF (in words)” value (A/J mice; mice) was “inhibited”. The “macrophage accumulation in BALF induced by cigarette smoke (in words)” value (A/J mice; mice) was “dose-dependent inhibition” and the “neutrophil accumulation in BALF induced by cigarette smoke (in words)” value (A/J mice; mice) was “dose-dependent inhibition”.
With Cc1ccc(-n2nc(C(C)(C)C)cc2NC(=O)Nc2ccc(Oc3ccnc(Nc4ccccc4Cl)n3)c3ccccc23)cc1 [Example 6, 1-(3-(tert-butyl)-1-(p-tolyl)-1H-pyrazol-5-yl)-3-(4-((2-((2-chlorophenyl)amino)pyrimidin-4-yl)oxy)naphthalen-1-yl)urea] the “HRV IL-8 (BEAS2B) % inhibition” value [1] was 77%, the “HRV CPE (MRC5) % inhibition” value (HRV16) was 46% and the IC50 (p38MAPKγ (MAPK12)) was over 16200 nM. The IC50 [2] was 161 nM, the IC50 (GSK 3α enzyme isoform) was over 16200 nM and the IC50 [3] was 56 nM. For the same compound, the “MTT Assay Cell viability” value (d-U937 cells; 4 h) was “−ve (−ve and +ve indicate the value is below and above respectively, the no significant effect threshold defined as 30% inhibition at 1 μg/mL at the time point indicated)” and the “MTT Assay Cell viability” value (d-U937 cells; 24 h) was “−ve (−ve and +ve indicate the value is below and above respectively, the no significant effect threshold defined as 30% inhibition at 1 μg/mL at the time point indicated)”.
